SMILES | melting point [°C]
CC(C)(C)C(=O)Nc1cccc(N)n1 | 140 to 141
COC(=O)CC=C1CCC2C3CCC4=CC(=O)CCC4(C)C3CCC12C (stereo not given) | 149 to 151
CCOC(=O)C(NC(=O)Cc1ccc(N)cn1)C(=O)OCC | 89 to 90
CCOC(=O)C(C#N)=CNc1nccc2c1CCCC2 | 116 to 120
CC(=O)Nc1c([N+](=O)[O-])cc([N+](=O)[O-])c2c1CCCC2 | 203
Cn1nc(S(C)=O)c(=O)c2ccccc21 (stereo not given) | 187 to 189
O=C1N=CC(OCC2CC2)(C(F)(F)F)c2cc(Cl)ccc2N1 (stereo not given) | 185 to 186
CC(CC(C)(C)OOC(=O)NC1CCCCC1)OC(=O)NC1CCCCC1 (stereo not given) | 224 to 226
O=C(O)C1Cc2ccccc2N1C(=O)CCSSCCC(=O)N1c2ccccc2CC1C(=O)O (stereo not given) | 213 to 216
CC(=O)[C@H]1CC[C@H](CNC(=O)OCc2ccccc2)CC1 | 66 to 67
Cc1cc(C)c2c(c1)[C@H]1CN(C)CC[C@@H]1CC2=O (relative stereo) | > 250
Cc1nnc2c3ccc(Cl)cc3c(-c3ccccc3)nn12 | 236 to 238
CCCCCCCCCCCCCCCCCCOc1cc(N)cc(OCCCP(=O)(OCC)OCC)c1 | 63 to 65
CC(C)OC1C=CC(=O)N1 (stereo not given) | 79 to 81
O=C1CNC=Nc2[nH]cnc21 | 260
C=C(C)C(=O)NCCCCCCCCCCCC(=O)O | 70.8 to 72.4

SMILES | melting point [°C]
CC(C)C1(C)Cc2cc(OCC#N)c(Cl)c(Cl)c2C1=O (stereo not given) | 133
CC(C)C(=O)NC(N)=S | 114 to 116
CC(C)CCn1cc([N+](=O)[O-])cc1C(=O)O | 154 to 157
OC1CCN(c2cc3nc(S)[nH]c3cc2F)CC1 | 268 to 269
CCOC(=O)C1(Br)Oc2cc(OC(C)=O)ccc2OC1Br (stereo not given) | 131
CCOC(=O)c1ccc(Br)cc1COC(C)=O | 51.5 to 52.5
Cc1cc(I)ccc1N=C=S | 51 to 53
CC(=O)OCC1OC(n2cc(SC#N)c(=O)[nH]c2=O)CC1(O)C(C)=O (stereo not given) | 106 to 108
O=C(Nc1ccc(O)cc1)OCC(Cl)(Cl)Cl | 134
Cc1cc(C(C)(C)C)cc(C)c1SSc1c(C)cc(C(C)(C)C)cc1C | 127 to 128
CCOC(=O)CNC(=O)C1(CC)CCCCCCC1 | 65 to 67
OC1(C23CC4CC(CC(C4)C2)C3)CCCCC1 | 166 to 168
CC1(C)CC(OC(=O)CCCCCCCCC(=O)OC2CC(C)(C)N(OCc3ccccc3)C(C)(C)C2)CC(C)(C)N1OCc1ccccc1 | 58 to 61
Cc1c(N)cc([N+](=O)[O-])c(N)c1C | 159
Clc1ccc2c(C3=CCN(CCNc4ccccn4)CC3)c[nH]c2c1 | 217 to 219

Second part, the compound after the results:

melting point [°C] | SMILES
170 to 172 | CCN(CC)c1ccc(F)c2nc3n(c12)CCCN3c1ccc(Cl)cc1Cl
61 to 65 | CCCc1cc(C(=O)O)cc(CCC)c1OCCCCCCc1cccc(OC)c1OC
190 | CN(c1cccc2cc(-c3nccs3)[nH]c12)S(=O)(=O)c1ccsc1C(=O)N1CCOCC1
134 to 135 | COc1ccc(CNc2ccccc2C(=O)Nc2cccc(C(F)(F)F)c2C)cn1
177 to 178 | COc1cc(-c2ccc(C#N)cc2)cc(C=O)c1O
61 to 62 | OCC(O)COc1noc2ccc(Cl)cc12 (stereo not given)
150 to 152 | CC(C)(C)c1ccc(OCC(O)CN2CCC3(CC2)CSC2=C(O3)c3cc(Br)ccc3C(=O)C2=O)cc1 (stereo not given)
188 to 190 | Nc1cnc(-c2cc(Cl)cc(Cl)c2Cl)c(NC(=O)C2CC2)n1
132 to 133 | CC/C=C(\C)CNc1cccc(-c2ccnc3c(C(=O)c4cccs4)cnn23)c1
121 to 123 | Cc1cccc(C)c1N1CN(C)CN(C)C1=S
243 to 245 | NC(=O)c1nnn(Cc2c(Cl)cccc2Cl)c1N
128 to 130 | Fc1cc2c(c(-c3c(Cl)cccc3Cl)c1)OC(CNC1CCC1)C2 (stereo not given)
203 to 204 | CCCCc1nc2cccc(CO)c2n1Cc1ccc(-c2ccccc2C#N)cc1
143 to 144 | COC(=O)c1[nH]c(C)c(Cc2ccccc2)c1N
60 to 62 | COC(=O)C(C)(C)CCCOc1cc(C)c(NC(=O)C(C)(C)CCCOc2cc(C)ccc2C)cc1C
142 to 143 | COC(=O)c1ccc(/C=C/c2nc(-c3ccco3)oc2C)cc1
> 260 | N=C(N)c1ccc(-c2ccc(Nc3ccc(CCC(=O)O)cc3)nn2)cc1
127 | CCCC1=NN(c2ccc(Br)cc2)C(=O)C1=CNc1ccccc1CC
156 to 158 | COc1cc(C(C)O)c(O)cc1OCCCN1CCC(c2noc3cc(F)ccc23)CC1 (stereo not given)
117 to 119 | CCOC(=O)Cc1ccc(-c2cn3ccsc3n2)cc1
94 to 95 | N#Cc1ccccc1OC[C@@H](O)CNCCOc1ccc2oc(-c3ccon3)cc2c1
120 | CC1(C)OCc2cc(Cl)cc(C(O)c3cn(C(c4ccccc4)(c4ccccc4)c4ccccc4)cn3)c2O1 (stereo not given)

melting point [°C] | SMILES
210 to 211 | O=C(O)C1CCc2c(c3ccccc3n2C(=O)c2ccc(Cl)cc2)C1 (stereo not given)
86 to 88 | CCOc1cc(C(=CC#N)c2ccc(OC)c(C)c2)ccc1OC
108 | COc1cccc(-c2ccc(C(O)C(F)(F)F)cc2)c1 (stereo not given)
203 | CN(c1cccc2cc(-c3nccs3)[nH]c12)S(=O)(=O)c1cccnc1Cl
162 to 165 | Cc1cc(N)c(C(=O)Cc2nnnn2C)cc1C
129 | COC1=C(c2cccc(C(F)(F)F)c2)C(=O)N(C(C)(C)C)C1
133 to 135 | CS(=O)(=O)CC(=O)NCCn1ccc2ncnc(Nc3ccc(Oc4cccc(OC(F)(F)F)c4)c(Cl)c3)c21
> 300 | O=c1[nH]c2cc(-n3cnc4ccccc43)c([N+](=O)[O-])cc2[nH]c1=O
189 to 191 | Nc1cccc2c1C(=O)C1=C(CCCC1)C2=O
144 to 145 | CC(C)(C)OC(=O)N1CCC[C@H]1Cn1ccc2c3ccn(Cc4ccc(F)cc4)c(=O)c3ccc21
163 to 164 | CCO[C@@H](Cc1ccc(OCCc2nc(-c3ccc(-c4ccccc4)cc3)oc2C)c2ccsc12)C(=O)O
122 to 124 | O=C(OCc1ccccc1)C(CC(=O)N1Cc2cscc2C1)Cc1ccccc1 (stereo not given)
65 to 66 | O=C(c1cccc(Oc2ccccc2)c1)c1cccc(Br)n1
174 to 177 | CC1=Cc2ccncc2C(C)(NS(=O)(=O)c2ccc(C)cc2)c2ccccc21 (stereo not given)
137 to 138 | COCOc1c(NC(=S)NCc2cccnc2)cc(OC)cc1C(C)(C)C
101 | CCCCCCCNC(=O)N(C)c1cccc(-c2ccc(CCC(=O)O)cc2)c1
234 to 236 | CNc1nc(-c2ccccc2)c(-c2ccc(=O)n(C(C)C)n2)s1
175 to 176 | CN(C)C(=O)n1cc2c(n1)-c1ccc(Cl)cc1C(c1ccccc1Cl)=NC2
271 to 278 | Cc1cccc(Cc2ccc(-c3cnn4c(O)ncnc34)cc2)c1
192 to 195 | N#Cc1c(C(=O)O)cnn1-c1ccc(Cl)cc1
213 to 215 | Oc1ccc2c(c1)CCCC2n1cc[nH]c1=S (stereo not given)
159 to 160 | CC(=O)NCCC1CCc2ccn3nc(-c4ccccc4)cc3c21 (stereo not given)

From a melting point compilation (Tetko et al.; mined from patent text by program, amines drawn as free bases though some values may be those of a salt)
